How the values were obtained:
[1] = tested on: breast cancer cell lines (TNBC, ER+HER2−, ER+HER2+ and ER−/HER2+); experiment: Cell proliferation, 12-well plates, bright-field imaging; format: cell-based; settings: 100 nM, seven days of treatment
Protocol: Cells were seeded in 12-well plates at densities ranging from 10000-30000 cells/well and after 24 hours cells were treated with 10, 40 and 100 nM THZ1 in triplicate. After 7 days the cells were imaged using Zeiss Axiovert 200 microscope using a 20× objective lens. Additionally, cells were plated in 96-well plates at a density of 2000 cells/well and after 24 hours treated with 0-10 μM THZ1. After 2 and 7 days the growth of the cells was measured by MTT assay.
The effects of different concentrations of THZ1 on breast cancer cell lines was examined. Cell lines included TNBC, ER+HER2−, ER+HER2+ and ER−/HER2+ and effects were studied over seven days of treatment.

[2] = tested on: phosphorylation of RNA Pol II at S2, S5 and S7; experiment: Immunoblotting of RNA Pol II phosphorylation; format: cell-based; settings: increasing concentrations (10-6250 nM), 4 hours, multiple breast cancer cell lines
Protocol: (§1) Cells were plated in 100 mm^2 petri dishes at a density of 1×10^6 cells/plate and allowed to grow for 3-4 days until the cells reached 80% confluency. Cells were treated with THZ1 or with vehicle control (DMSO) prior to lysing cells in RIPA buffer containing protease inhibitor cocktail and PMSF. Protein concentration was determined using BCA assay (Pierce). All lysates were prepared in biological duplicates. Protein (50 μg) was resolved on 4-20% Express-Plus PAGE gels in Tris-MOPS (SDS) running buffer (GenScript), transferred to PVDF membranes and incubated at 4° C. overnight with primary antibodies: CDK7 (sc-529, SantaCruz), ER (sc-543, SantaCruz), HER2 (#4290, Cell Signaling Technology), RNA-Pol II-S2P (C152000005, Diagenode), RNA-Pol II-S5P C152000007, RNA-Pol II-S7P (04-1570, Millipore) and RNA-Pol II (sc-900X, SantaCruz), CITED2 (MAB5005, R+D Systems), Tubulin (T-9026, Sigma), followed by anti-rabbit (#31460, ThermoFisher Scientific), anti-mouse (31430, ThermoFisher Scientific) or anti-rat (AP136P, Millipore) secondary antibodies. Bands were visualized with Western Lighting Plus ECL detection reagent (Perkin Elmer) using ChemiDoc Touch™ (BioRad). Images were analyzed and densitometry performed using ImageLab software (Biorad).
The effects of increasing concentrations of THZ1 on the phosphorylation of RNA Pol II at S2, S5 and S7 was tested across multiple breast cancer cell lines. […]

MDA-MB-231 cells = experiment: Cell cycle analysis; format: cell-based; settings: MDA-MB-231, 100 and 250 nM
Protocol: MDA-MB-231 and T47D cells were seeded into 6-well plates and allow to grow until 60% confluent. The cells were then washed with PBS and the media was replaced with serum-free media overnight. After serum starvation the cells were treated with serum containing media in the presence or absence of 100 and 250 nM THZ1 for 24 and 48 hours. The cells were collected, fixed in ethanol overnight and cell cycle distribution was measured using DAPI on the LSR2 (Beckman-Dickinson).

breast cancer cell lines = experiment: qPCR gene expression after THZ1; format: cell-based; settings: 250 nM, 6 hours
Protocol: Cells were plated in 100 mm^2 petri dishes at a density of 1×10^6 cells/plate and allowed to grow for 3-4 days until the cells reached 80% confluency. Cells were treated with THZ1 or with vehicle control (DMSO). Total RNA was extracted using RNAeasy Mini Kit (Qiagen) and 1 μg of total RNA was used to generate cDNA using iScript cDNA synthesis kit (BioRad). Gene expression was quantified using iTaq Universal SYBR green super mix on a CFX384 Real time system (BioRad).

CITED2 = experiment: Immunoblotting of CITED2 protein; format: cell-based; settings: 10-6250 nM, 4 hours, immunoblot
Protocol: as §1

MDA-MB-468 cells = settings: fold change in gene expression, 250 nM THZ1; cited from earlier work
549 = settings: fold change in gene expression, THZ1; cited from earlier work
ZR751 = settings: fold change in gene expression, THZ1; cited from earlier work

## CN(C)C/C=C/C(=O)Nc1ccc(C(=O)Nc2cccc(Nc3ncc(Cl)c(-c4c[nH]c5ccccc45)n3)c2)cc1 [THZ1]
[1]
  growth inhibition: inhibited the growth of all tested cell lines regardless of subtype
[2]
  phosphorylation of RNA Pol II at S2, S5 and S7: inhibited the phosphorylation of all three sites in a dose dependent manner
MDA-MB-231 cells; 24 hours
  cell cycle distribution: G1 arrest
MDA-MB-231 cells; 48 hours
  cell cycle distribution: increased sub-G1 (apoptotic cell) accumulation
Breast cancer cell lines; MDA-MB-231 and T47D
  expression of SOX9 and STAT3: not inhibited
Breast cancer cell lines; majority of tested cell lines
  expression of CITED2, CDKN1B and PLK2: significant decrease in expression
Breast cancer cell lines; majority of the cell lines tested
  expression of EGFR, MYC and FOXC1: significantly inhibited
CITED2
  protein expression of CITED2: significantly decreased
MDA-MB-468 cells
  BAMBI 468 FC: −3.8
  CDKN1B 468 FC: −4.11
  CITED2 468 FC: −4.53
  CYR61 468 FC: −4.82
  DKK1 468 FC: −4.7
  E2F8 468 FC: −4.01
  ELF3 468 FC: −3.88
  FADD 468 FC: −3.93
  FBXO5 468 FC: −4.19
  MARS2 468 FC: −4.04
  MOCS3 468 FC: −3.84
  MYC 468 FC: −4.64
  NEDD9 468 FC: −4.03
  PHLDA1 468 FC: −3.71
  PIM3 468 FC: −4.05
  PLK2 468 FC: −3.99
  TRIB1 468 FC: −3.69
  WEE1 468 FC: −3.69
  ZNF217 468 FC: −3.77
  ZNF627 468 FC: −3.68
549
  BAMBI 549 FC: −2.97
  CDKN1B 549 FC: −3.06
  CITED2 549 FC: −4.12
  CYR61 549 FC: −2.96
  DKK1 549 FC: −5.01
  E2F8 549 FC: −3.09
  ELF3 549 FC: −1.11
  FADD 549 FC: −3.1
  FBXO5 549 FC: −4.09
  MARS2 549 FC: −3.73
  MOCS3 549 FC: −4.2
  MYC 549 FC: −3.06
  NEDD9 549 FC: −1.53
  PHLDA1 549 FC: −2.72
  PIM3 549 FC: −2.73
  PLK2 549 FC: −3.7
  TRIB1 549 FC: −4.07
  WEE1 549 FC: −2.95
  ZNF217 549 FC: −3.66
  ZNF627 549 FC: −3.39
ZR751
  BAMBI ZR751 FC: −3.77
  CDKN1B ZR751 FC: −2.57
  CITED2 ZR751 FC: −2.64
  CYR61 ZR751 FC: −1.81
  DKK1 ZR751 FC: −4.15
  E2F8 ZR751 FC: −4.01
  ELF3 ZR751 FC: −1.65
  FADD ZR751 FC: −4.12
  FBXO5 ZR751 FC: −3.01
  MARS2 ZR751 FC: −3.75
  MOCS3 ZR751 FC: −4.1
  MYC ZR751 FC: −2.98
  NEDD9 ZR751 FC: −2.68
  PHLDA1 ZR751 FC: −2.55
  PIM3 ZR751 FC: −3.96
  PLK2 ZR751 FC: −3.04
  TRIB1 ZR751 FC: −3.54
  WEE1 ZR751 FC: −3.25
  ZNF217 ZR751 FC: −4.13
  ZNF627 ZR751 FC: −3.38
